{
  "source": "patent US9701689B2",
  "about": "“Substituted pyridines and pyridazines as CCR10 receptor inhibitors” (KYOWA HAKKO KIRIN CO., LTD., priority 2012, dated 2017)",
  "biological_target": "T1, human CCR10 (Homo sapiens, UniProt P46092)",
  "T1 construct": "expressed in transfected cells; host or cells: KJMGER8 cells (Namalwa cell-derived line), beta-estradiol-induced; hCCR10G16 cells",
  "T1 sequence (P46092 1-362)": "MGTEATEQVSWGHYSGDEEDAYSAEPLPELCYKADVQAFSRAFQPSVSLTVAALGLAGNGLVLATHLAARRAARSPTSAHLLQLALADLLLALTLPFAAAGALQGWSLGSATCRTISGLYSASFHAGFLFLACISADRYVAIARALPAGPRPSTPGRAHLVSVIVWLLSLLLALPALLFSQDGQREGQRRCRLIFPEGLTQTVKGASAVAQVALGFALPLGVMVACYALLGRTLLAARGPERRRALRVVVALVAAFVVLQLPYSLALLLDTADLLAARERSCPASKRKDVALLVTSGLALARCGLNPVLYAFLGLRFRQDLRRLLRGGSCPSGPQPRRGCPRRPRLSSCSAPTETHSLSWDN",
  "test": "CCR10 antagonistic effect: calcium assay of human CCR10 (CTACK-induced increase of intracellular calcium in hCCR10G16 cells)",
  "assay_type": "cell-based",
  "settings": "at a concentration of not more than 1000 nmol/L; human CCR10-expressing hCCR10G16 cells, 300 nmol/L CTACK added; read-out: inhibition of increase in the calcium ion concentration",
  "description": "[Experimental Example 1] CCR10 Antagonistic Effect\n(1) Preparation of Human CCR10-Inducible Expression Plasmid\nA CCR10-inducible expression plasmid was prepared according to a known method [Analytical Biochemistry, 2006, vol. 400, page 163]. A DNA encoding human CCR10 was obtained by PCR. Using human chromosome DNA (100 ng; manufactured by Clontech) as a template, synthetic DNA having the sequences depicted in SEQ ID NOs: 1 and 2 as a human CCR10 cDNA specific primer, and Pyrobest DNA Polymerase (manufactured by TAKARA SHUZO CO. LTD.) as an enzyme, a DNA encoding human CCR10 was obtained by PCR. As a buffer for PCR, the buffer attached to the enzyme to be used, which was diluted 10-fold with deionized water, was used. Using Thermal Cycler DNA Engine (manufactured by MJ Research), PCR was performed by 35 cycles of reactions composed of an incubation at 94° C. for 30 sec, at an anneal temperature of 58° C. for 30 sec, and at 72° C. for 1 min after treating at 90° C. for 2 min.\nThe amplified PCR fragment was cleaved with HindIII and NotI, then a human CCR10 DNA fragment was recovered by the agarose gel electrophoresis method. The fragment was incorporated between the corresponding restriction enzyme sites (HindIII-NotI) of an inducible expression vector to construct a human CCR10-inducible expression plasmid.\nUsing a primer specific to the sequence of plasmid (synthetic DNA having the sequences shown in SEQ ID NOs: 3 and 4), the sequence of human CCR10 DNA region was determined. For the determination of the base sequence, DNA Sequencer 377 (manufactured by Perkin Elmer. Co.) and a reaction kit (ABI Prism (registered trade mark) BigDye (registered trade mark) Terminator Cycle Sequencing Ready Reaction kit: manufactured by Applied Biosystems) were used. The sequence of human CCR10 DNA was identical with the sequence (NM 016602) registered in GenBank.\n(2) Preparation of Human CCR10 Expressing Cell for Calcium Assay\nCells for detecting signals from human CCR10 in calcium assay were prepared. According to a known method [Analytical.Biochemistry (Analy Biochem), 2006, vol. 400, page 163], human CCR10-inducible expressing cells whose host cell is KJMGER8 cell (Namalwa cell-derived cell line) were prepared. Human CCR10-inducible expression plasmid produced above and Gα16 expression plasmid were co-transfected into the KJMGER8 cells by the electroporation method [Cytotechnology, 1990, vol. 3, page 133], whereby the signals from human CCR10 could be detected by calcium assay (hereinafter to be referred to as hCCR10G16 cell). A Ga16 expression plasmid was produced by incorporating human Ga16 DNA into expression vector pAMoh (WO 03/087366). Expression of human CCR10 was induced by cultivating hCCR10G16 cells in the presence of 10 nmol/L β-estradiol (manufactured by Sigma Ltd.) for 24 hr.\n(3) Calcium Assay of Human CCR10\nCells expressing human CCR10 induced by the above-mentioned method were suspended in RPMI1640 medium (manufactured by Invitrogen), and adjusted to a cell density of 2×10^6 cells/mL. The cells were blended with an equivalent volume of a loading buffer prepared according to the attached protocol of Fluo-3 calcium assay kit (manufactured by Molecular Devices Corporation), and incubated at 37° C. for several dozen minutes. This mixture was dispensed to a 384 well clear-bottom plate (manufactured by Corning Incorporated) at 40 μL/well. To this plate was added a solution of the test compound in dimethyl sulfoxide (DMSO), which was diluted 37-fold with RPMI1640 medium, at 5 μL/well, and the mixture was incubated at 37° C. for 30 min. 300 nmol/L human recombinant CTACK (manufactured by R&D Systems, Inc.) diluted with RPMI1640 medium containing 1 w/v % bovine serum albumin (manufactured by Sigma Ltd.) was added at 5 μL/well and, variation of intracellular calcium ion concentration for about 5 min after the addition was measured by a screening apparatus (FDSS; manufactured by Hamamatsu Photonics K.K.). […]",
  "data": [
    {"smiles": "NS(=O)(=O)c1ncc(C(=O)N2CCC(c3ccc(F)cc3)CC2)c(Nc2ccc(F)cc2F)c1Cl", "note": "[Compound 27, 3-chloro-4-(2,4-difluorophenylamino)-5-[4-(4-fluorophenyl)piperidine-1-carbonyl]pyridine-2-sulfonamide]", "values": [
      {"measurement": "inhibition at up to 1 µM", "result": "≥ 50", "unit": "%"}
    ]},
    {"smiles": "NS(=O)(=O)c1ncc(C(=O)N2CCC(c3ccc(F)cc3)CC2)c(Nc2ccc(Cl)cc2F)c1Cl", "note": "[Compound 28, 3-chloro-4-(4-chloro-2-fluorophenylamino)-5-[4-(4-fluorophenyl)piperidine-1-carbonyl]pyridine-2-sulfonamide]", "values": [
      {"measurement": "inhibition at up to 1 µM", "result": "≥ 50", "unit": "%"}
    ]},
    {"smiles": "COc1ccc(Nc2c(C(=O)N3CCC(c4ccc(F)cc4)CC3)cnc(S(N)(=O)=O)c2Cl)cc1", "note": "[Compound 29, 3-chloro-5-[4-(4-fluorophenyl)piperidine-1-carbonyl]-4-(4-methoxyphenylamino)pyridine-2-sulfonamide]", "values": [
      {"measurement": "inhibition at up to 1 µM", "result": "≥ 50", "unit": "%"}
    ]},
    {"smiles": "COc1ccc(Nc2c(C(=O)N3CCC(c4ccc(F)cc4)CC3)cnc(S(N)(=O)=O)c2Cl)c(F)c1", "note": "[Compound 30, 3-chloro-4-(2-fluoro-4-methoxyphenylamino)-5-[4-(4-fluorophenyl)piperidine-1-carbonyl]pyridine-2-sulfonamide]", "values": [
      {"measurement": "inhibition at up to 1 µM", "result": "≥ 50", "unit": "%"}
    ]},
    {"smiles": "Cc1cc(Nc2c(C(=O)N3CCC(c4ccc(F)cc4)CC3)cnc(S(N)(=O)=O)c2Cl)ccc1F", "note": "[Compound 31, 3-chloro-4-(4-fluoro-3-methylphenylamino)-5-[4-(4-fluorophenyl)piperidine-1-carbonyl]pyridine-2-sulfonamide]", "values": [
      {"measurement": "inhibition at up to 1 µM", "result": "≥ 50", "unit": "%"}
    ]},
    {"smiles": "COc1ccc(Nc2c(C(=O)N3CCC(c4ccc(F)cc4)CC3)cnc(S(N)(=O)=O)c2Cl)cc1F", "note": "[Compound 32, 3-chloro-4-(3-fluoro-4-methoxyphenylamino)-5-[4-(4-fluorophenyl)piperidine-1-carbonyl]pyridine-2-sulfonamide]", "values": [
      {"measurement": "inhibition at up to 1 µM", "result": "≥ 50", "unit": "%"}
    ]},
    {"smiles": "Cc1ccccc1Nc1c(C(=O)N2CCC(c3ccc(F)cc3)CC2)cnc(S(N)(=O)=O)c1Cl", "note": "[Compound 33, 3-chloro-5-[4-(4-fluorophenyl)piperidine-1-carbonyl]-4-(o-tolylamino)pyridine-2-sulfonamide]", "values": [
      {"measurement": "inhibition at up to 1 µM", "result": "≥ 50", "unit": "%"}
    ]},
    {"smiles": "NS(=O)(=O)c1ncc(C(=O)N2CCC(c3ccc(F)cc3)CC2)c(Nc2cc(F)c(F)cc2F)c1Cl", "note": "[Compound 34, 3-chloro-5-[4-(4-fluorophenyl)piperidine-1-carbonyl]-4-(2,4,5-trifluorophenylamino)pyridine-2-sulfonamide]", "values": [
      {"measurement": "inhibition at up to 1 µM", "result": "≥ 50", "unit": "%"}
    ]},
    {"smiles": "CNC(=O)C1COCCN1S(=O)(=O)c1ncc(C(=O)N2CCC(c3ccc(F)cc3)CC2)c(Nc2ccc(F)cc2C)c1Cl", "note": "(stereo not drawn) [Compound 35, 4-{3-chloro-4-(4-fluoro-2-methylphenylamino)-5-[4-(4-fluorophenyl)piperidine-1-carbonyl]pyridin-2-ylsulfonyl}-N-methylmorpholine-3-carboxamide]", "values": [
      {"measurement": "inhibition at up to 1 µM", "result": "≥ 50", "unit": "%"}
    ]},
    {"smiles": "COc1ccc(NS(=O)(=O)c2ncc(C(=O)N3CCC(c4ccc(F)cc4)CC3)c(Nc3ccc(F)cc3C)c2Cl)cc1", "note": "[Compound 38, 3-chloro-4-(4-fluoro-2-methylphenylamino)-5-[4-(4-fluorophenyl)piperidine-1-carbonyl]-N-(4-methoxyphenyl)pyridine-2-sulfonamide]", "values": [
      {"measurement": "inhibition at up to 1 µM", "result": "≥ 50", "unit": "%"}
    ]},
    {"smiles": "Cc1cc(F)ccc1Nc1c(C(=O)N2CCC(c3ccc(F)cc3)CC2)cnc(S(=O)(=O)Nc2ccn(C)n2)c1Cl", "note": "[Compound 39, 3-chloro-4-(4-fluoro-2-methylphenylamino)-5-[4-(4-fluorophenyl)piperidine-1-carbonyl]-N-(1-methyl-1H-pyrazol-3-yl)pyridine-2-sulfonamide]", "values": [
      {"measurement": "inhibition at up to 1 µM", "result": "≥ 50", "unit": "%"}
    ]},
    {"smiles": "Cc1cc(NS(=O)(=O)c2ncc(C(=O)N3CCC(c4ccc(F)cc4)CC3)c(Nc3ccc(F)cc3C)c2Cl)no1", "note": "[Compound 40, 3-chloro-4-(4-fluoro-2-methylphenylamino)-5-[4-(4-fluorophenyl)piperidine-1-carbonyl]-N-(5-methylisoxazol-3-yl)pyridine-2-sulfonamide]", "values": [
      {"measurement": "inhibition at up to 1 µM", "result": "≥ 50", "unit": "%"}
    ]},
    {"smiles": "Cc1cc(NS(=O)(=O)c2ncc(C(=O)N3CCC(c4ccc(F)cc4)CC3)c(Nc3ccc(F)cc3C)c2Cl)on1", "note": "[Compound 41, 3-chloro-4-(4-fluoro-2-methylphenylamino)-5-[4-(4-fluorophenyl)piperidine-1-carbonyl]-N-(3-methylisoxazol-5-yl)pyridine-2-sulfonamide]", "values": [
      {"measurement": "inhibition at up to 1 µM", "result": "≥ 50", "unit": "%"}
    ]},
    {"smiles": "Cc1cc(F)ccc1Nc1c(C(=O)N2CCC(c3ccc(F)cc3)CC2)cnc(S(=O)(=O)Nc2cc(C(C)(C)C)on2)c1Cl", "note": "[Compound 42, N-(5-tert-butylisoxazol-3-yl)-3-chloro-4-(4-fluoro-2-methylphenylamino)-5-[4-(4-fluorophenyl)piperidine-1-carbonyl]pyridine-2-sulfonamide]", "values": [
      {"measurement": "inhibition at up to 1 µM", "result": "≥ 50", "unit": "%"}
    ]},
    {"smiles": "CCNC(=O)NS(=O)(=O)c1ncc(C(=O)N2CCC(c3ccc(F)cc3)CC2)c(Nc2ccc(F)cc2C)c1Cl", "note": "[Compound 43, 3-chloro-N-(ethylcarbamoyl)-4-(4-fluoro-2-methylphenylamino)-5-[4-(4-fluorophenyl)piperidine-1-carbonyl]pyridine-2-sulfonamide]", "values": [
      {"measurement": "inhibition at up to 1 µM", "result": "≥ 50", "unit": "%"}
    ]},
    {"smiles": "NS(=O)(=O)c1ncc(C(=O)N2CCC(c3ccc(F)cc3)CC2)c(NCc2ccccc2)c1Cl", "note": "[Compound 44, 4-(benzylamino)-3-chloro-5-[4-(4-fluorophenyl)piperidine-1-carbonyl]pyridine-2-sulfonamide]", "values": [
      {"measurement": "inhibition at up to 1 µM", "result": "≥ 50", "unit": "%"}
    ]},
    {"smiles": "NS(=O)(=O)c1ncc(C(=O)N2CCC(c3ccc(F)cc3)CC2)c(NC2CCCCC2)c1Cl", "note": "[Compound 45, 3-chloro-4-(cyclohexylamino)-5-[4-(4-fluorophenyl)piperidine-1-carbonyl]pyridine-2-sulfonamide]", "values": [
      {"measurement": "inhibition at up to 1 µM", "result": "≥ 50", "unit": "%"}
    ]},
    {"smiles": "Cc1cc(Cl)ccc1Nc1cc(S(N)(=O)=O)ncc1C(=O)N1CCC2(CC1)OCc1ccccc12", "note": "[Compound 46, 4-(4-chloro-2-methylphenylamino)-5-(3H-spiro[isobenzofuran-1,4′-piperidine]-1′-ylcarbonyl]pyridine-2-sulfonamide]", "values": [
      {"measurement": "inhibition at up to 1 µM", "result": "≥ 50", "unit": "%"}
    ]},
    {"smiles": "Cc1cc(F)ccc1Nc1cc(S(N)(=O)=O)ncc1C(=O)N1CCC(c2ccccc2)CC1", "note": "[Compound 48, 4-(4-fluoro-2-methylphenylamino)-5-(4-phenylpiperidine-1-carbonyl)pyridine-2-sulfonamide]", "values": [
      {"measurement": "inhibition at up to 1 µM", "result": "≥ 50", "unit": "%"}
    ]},
    {"smiles": "Cc1cc(Cl)ccc1Nc1cc(S(N)(=O)=O)ncc1C(=O)N1CCC(c2ccccc2)CC1", "note": "[Compound 49, 4-(4-chloro-2-methylphenylamino)-5-(4-phenylpiperidine-1-carbonyl)pyridine-2-sulfonamide]", "values": [
      {"measurement": "inhibition at up to 1 µM", "result": "≥ 50", "unit": "%"}
    ]},
    {"smiles": "Cc1ccc(Cl)c(Nc2cc(S(N)(=O)=O)ncc2C(=O)N2CCC(c3ccc(F)cc3)CC2)c1", "note": "[Compound 50, 4-(2-chloro-5-methylphenylamino)-5-[4-(4-fluorophenyl)piperidine-1-carbonyl]pyridine-2-sulfonamide]", "values": [
      {"measurement": "inhibition at up to 1 µM", "result": "≥ 50", "unit": "%"}
    ]}
  ]
}
